We go through 28 compounds from patent US11147295B2, “Sweetener and flavor compositions, methods of making and methods of use thereof” (EPC Natural Products Co., Ltd., priority 2018, dated 2021).

Assay [1] is described as follows: Sensory analysis of Maillard reaction samples: odor/smell, color, taste (Examples 55-62). The assay is classed as in vivo, human. As to conditions: Example 56, negative controls (no carbohydrate source); 10 ml glycerin/water=9:1, 100° C., 40 minutes. The protocol: All reactions were performed in 10 ml glycerin/water=9:1. The reaction partners were dissolved in water and then warmed glycerin (60° C.) was added. The reactions were performed at 100° C. for 40 minutes in a drying oven (sealed vials were positioned in pre-heated sand to increase heat transfer).
All samples were assessed at 22° C. after the Maillard reaction was stopped by placing the sealed vials in an ice bath. After 20 minutes in the ice bath the sealed vials were put in a water bath set to 22° C.
The odor/smell was assessed independently by 3 persons; the final description was agreed after discussion. […] The taste was assessed independently by 3 persons either in the original samples or after appropriate dilution to achieve relevant concentrations of sugars and steviol-glycosides (i.e. 5-9% SE); the final description was agreed after discussion.

Assay in assay [2]: as above
The assay is classed as in vivo, human.

A short description of assay [3]: Sensory evaluation of the samples prepared in Example 50 (Example 52). The assay is classed as in vivo, human. Also on record: key to Intensity of Smell: “+” for slight; “++” for moderate; “+++” for very strong.
Description: The reaction partner (amino acid, carbohydrate source) were dissolved/suspended in the reaction solvent and transferred into a glass beaker filled with sand pre-heated for at least 30 minutes at the reaction temperature in a drying oven. After the planned reaction time, the vials were transferred into ice water. After cooling to room temperature, sensory analysis and analytical characterization was performed.
For evaluation of the taste profile, the samples were tested by a panel of four people. 1 trained taster tasted independently the samples first. The taster was asked to describe the taste profile and score 0-5 according to the increasing sugar likeness, bitterness, aftertaste and lingering taste profiles. The first taster was allowed to re-taste, and then make notes for the sensory attributes perceived. Afterwards, another 3 tasters tasted and the attributes were noted and discussed openly to find a suitable description. In case that more than 1 taster disagreed with the results, the tasting was repeated. In some sensory test results (above), the taste rating was expressed by “+”, which means the intensity of the factors is shown by three levels. “+” for slight, “++” for moderate and “+++” for very strong.
Assay [4] can be described thus: DPPH radical-scavenging activity (Example 65). The assay is classed as physicochemical. The following applies: iron-III reduction and DPPH radical scavenging, samples kept at 100° C. 0, 2.5 or 5.0 hours. The protocol: 1 mg 1,1-Diphenyl-2-picrylhydrazyl radical (DPPH)/ml ethanol, dilution to assay concentration were prepared in ethanol (40 μg/mL); Calibration samples were prepared with Ascorbic acid in a concentration of 0-10 μg/mL; as a negative control sample, water was used.
Samples in aqueous solution were used as such or diluted with water.
A 0.1 ml sample (or calibration standard) was mixed with 3.9 ml solution of DPPH (100 μMolar) and reacted while protected from light at room temperature for 30 min. Absorbance was determined at 517 nm against ethanol.
10 mM of amino acid and/or 10 mM sugar were dissolved in 10 ml 0.1 mM KH2PO4-buffer, pH=7.8.
The samples were kept at 100° C. in sealed glass vials (Pyrex 15 ml with screw caps) for 0 (before reaction), 2.5 or 5.0 hours. Thereafter the samples were transferred to an ice water bath and cooled down to room temperature. These samples were diluted 1:10 and used for the test assay for anti-oxidant potential.
On the technique in general: Loss of DPPH colour is used to gauge radical scavenging.

The conditions of assay [5]: the sweeteness depends on the tested concentration compared with sucrose; cited from earlier work.
Setting [6] is: Example 57, after reaction, 10 ml KH2PO4, pH 7.8, 2.5 h, 120° C.
The mark [7] stands for this setting: Example 57, before reaction, 10 ml KH2PO4, pH 7.8.
Setting [8] is: Table 52.6, Glycerin, 10 ml, 100° C., 40 min (Table 50.6).
[9] abbreviates: Table 52.7, Glycerin, 10 ml, 1 h, 120° C. (Table 50.7).
Setting [10] is: Table 52.2, 1 ml water + 9 ml Glycerin, 0.67 h, 100° C. (Table 50.2).
The mark [11] stands for this setting: Table 52.5, 1 ml water + 9 ml Glycerin, 2.0 h, 120° C. (Table 50.5).
The mark [12] stands for this setting: Table 52.1, 1 ml water + 9 ml Glycerin, 1 h, 100° C. (Table 50.1).
Setting [13] is: Table 52.3, 1 ml water + 9 ml Glycerin, 0.67 h, 100° C. (Table 50.3).

`O=C(O)[C@@H]1CCCN1` [11.5 mg Pro]: the Taste entry in assay [1] is listed as “Slightly sweet”.
`O=C[C@H](O)[C@@H](O)[C@H](O)[C@H](O)C(=O)O` [Glucuronic Acid]: in assay [2] (setting [6]), the Smell result is recorded as “burnt bread” and the Taste result is “Bitter”.
For the compound `N[C@@H](Cc1ccccc1)C(=O)O` [16.5 mg Phe], the Smell result is listed as “Bloomy, caramel” in assay [1]; “neutral” in assay [2] (setting [7]); “Neutral” in assay [2] (Example 58, before reaction, 10 ml KH2PO4, pH 7.8). For the same compound, the Taste result in assay [1] is reported as “Slightly sweet”; in assay [2] (setting [7]), “No taste”; in assay [2] (Example 58, before reaction, after dilution 1:20), “No taste”.
For `N[C@@H](Cc1ccccc1)C(=O)O` [3.3 mMol Phe], the Smell entry in assay [3] (Table 52.6, Glycerin, 10 ml, 100° C., 5 min (Table 50.6)) was “Slightly bloomy”; in assay [3] (Table 52.6, Glycerin, 10 ml, 100° C., 10 min (Table 50.6)), “flowery/bloomy”; in assay [3] (Table 52.6, Glycerin, 10 ml, 100° C., 20 min (Table 50.6)), “flowery/bloomy”; in assay [3] (setting [8]), “flowery/bloomy”; in assay [3] (setting [9]), “flowery/bloomy”.
Take `C[C@H](N)C(=O)O` [8.91 mg Ala]: in assay [1], the Smell result is given as “Neutral, slightly Agar” and the Taste result is given as “Slightly sweet”.
Taken in the same sequence, the figures for `N[C@@H](CS)C(=O)O` [12.1 mg Cys] were “Unpleasant (sulfur)” and “Slightly sweet”.
Take `N[C@@H](Cc1c[nH]c2ccccc12)C(=O)O` [20.42 mg Try]: in assay [1], the Smell entry is “Unpleasant (fecal)” and the Taste entry was “Slightly sweet”.
Consider `CSCC[C@H](N)C(=O)O` [14.9 mg Met], for which, in assay [1], the Smell entry is reported as “Sulfuric” and the Taste result is listed as “Slightly sweet”.
For the compound `N[C@@H](Cc1ccccc1)C(=O)O` [0.1 mMol Phe], the Taste result in assay [3] (setting [10]) is “sweet”. In assay [3] (setting [11]), the “Intensity of Smell” value is on record as “+”; the Smell entry is “Caramel, burnt”; the Taste result is “sweet”.
For the compound `C=C1C[C@@]23CC[C@H]4[C@@](C)(CCC[C@@]4(C)C(=O)O[C@@H]4O[C@H](CO)[C@@H](O)[C@H](O)[C@H]4O)[C@@H]2CC[C@]1(O[C@@H]1O[C@H](CO)[C@@H](O)[C@H](O[C@@H]2O[C@H](CO)[C@@H](O)[C@H](O)[C@H]2O)[C@H]1O[C@@H]1O[C@H](CO)[C@@H](O)[C@H](O)[C@H]1O)C3` [Reb-A, Rebaudioside A], the anti-oxidant properties entry in assay [4] is “substantial anti-oxidant properties”.
`OC[C@H]1OC(O)[C@H](O)[C@@H](O)[C@@H]1O` (stereo partly shown) [9 mg Glucose]: in assay [2] (setting [7]), the Smell entry is reported as “neutral” and the Taste result is listed as “Sweet”.
For the compound `C[C@@H](O)[C@H](N)C(=O)O` [11.91 mg Thr], in assay [1], the Smell result is “Vanilla, butter” and the Taste entry is “Slightly sweet”.
In the case of `OC[C@H]1O[C@H](O[C@]2(CCl)O[C@H](CCl)[C@@H](O)[C@@H]2O)[C@H](O)[C@@H](O)[C@H]1Cl` [sucralose], in assay [5], the “times sweeter than sucrose” value is recorded as “about 600 times”.
Regarding Thaumatin, the “times sweeter than sucrose” value in assay [5] was “about 2000 times”.
Consider `NCCCC[C@H](N)C(=O)O` [14.7 mg Lys], for which, in assay [1], the Smell entry is recorded as “Popcorn” and the Taste entry is listed as “Slightly sweet”.
As to `N[C@@H](CCC(=O)O)C(=O)O` [167 mMol Glu], in assay [3] (setting [12]), the Smell entry is listed as “caramel” and the Taste result is on record as “Sweet”.
With `O=C1O[C@@H]2[C@@H](O)[C@H](O)O[C@@H]2C1O` (stereo partly shown) [Glucuronolactone], in assay [2] (setting [6]), the Smell result is reported as “Burnt sugar” and the Taste entry is listed as “Bitter”.
Consider `C=C1C[C@@]23CC[C@H]4[C@@](C)(CCC[C@@]4(C)C(=O)O[C@@H]4O[C@H](CO)[C@@H](O)[C@H](O)[C@H]4O)[C@@H]2CC[C@]1(O[C@@H]1O[C@H](CO)[C@@H](O)[C@H](O[C@@H]2O[C@H](CO)[C@@H](O)[C@H](O)[C@H]2O)[C@H]1O[C@@H]1O[C@H](CO)[C@@H](O)[C@H](O)[C@H]1O)C3` [0.05 mMol Reb-A], for which, in assay [3] (setting [10]), the Smell entry is “neutral/unpleasant” and the Taste result is “sweet”.
Take `C[C@H](N)C(=O)O` [0.1 mMol Ala]: in assay [3] (setting [10]), the Smell result is on record as “Agar” and the Taste result is “sweet”.
As for `N[C@@H](Cc1ccc(O)cc1)C(=O)O` [18.1 mg Tyr], in assay [1], the Smell result is reported as “neutral” and the Taste result is “Slightly sweet”.
For `CC[C@H](C)[C@H](N)C(=O)O` [13.11 mg Ile], in assay [1], the Smell entry is reported as “Coffee” and the Taste result is “Slightly sweet”.
As for `O=S(=O)([O-])NC1CCCCC1.[Na+]` [sodium cyclamate], the “times sweeter than sucrose” value in assay [5] was “about 30 times”.
On to `O=C[C@H](O)[C@H]1OC(=O)[C@@H](O)[C@H]1O` [0.1 mMol GlucLac], for which, in assay [3] (setting [11]), the “Intensity of Smell” value is “+++”, the Smell result was “Burnt sugar” and the Taste entry is given as “Bitter”.
As for `N[C@@H](Cc1ccccc1)C(=O)O` [Phe 60 mMol], in assay [3] (setting [12]), the Smell entry is reported as “flowery/bloomy-caramel” and the Taste entry is “Sweet”.
For `N[C@H](Cc1ccccc1)C(=O)O` [Phe], in assay [2] (setting [6]), the Smell entry is “Caramel, burnt” and the Taste entry was “sweet”.
In the case of `N[C@@H](CO)C(=O)O` [10.5 mg Ser], in assay [1], the Smell entry was “Lotus flower” and the Taste result is “Slightly sweet”.
`NCCCC[C@H](N)C(=O)O` [0.1 mMol Lys]: in assay [3] (setting [13]), the Smell entry was “Popcorn” and the Taste entry is on record as “Sweet”.
Take `OC[C@H]1OC(O)[C@H](O)[C@@H](O)[C@@H]1O` (stereo partly shown) [10 mMol Glu]: the Smell entry in assay [3] (setting [8]) and in assay [3] (setting [9]) was “Slightly Caramel” each time.
